Measured values published in patent US5358951A, “Angiotensin II receptor blocking 2, 3, 6 substituted quinazolinones” (American Cyanamid Company, priority 1993, dated 1994).

Tested on: vasopressor response of angiotensin II
Experiment: AII Challenge: antagonism of angiotensin II vasopressor response;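 on Response Average Change: post-dose Angiotensin II-evoked rise in systolic blood pressure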
Format: in vivo
Details: 1 mg/kg i.v.; for inhibition in vivo at 1 mg/kg: Rattus norvegicus, iv
How it was run: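 Conscious male SHR (16-20 weeks) with aortic and caval cannulae received angiotensin II at 0.05 and 0.1 ug/kg i.v. before and 30-300 min after compound dosing (i.v., i.p. or oral). Blockade is expressed as % of each rat's predose rise in systolic pressure.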

SMILES: CCCCc1nc2ccc([C@]3(CC)C[C@@H]4CCCN4O3)cc2c(=O)n1Cc1ccc(-c2ccccc2-c2nnn[nH]2)cc1 (relative stereo) [Example 72, Trans-2-butyl-6-(2-ethylhexahydropyrrolo[1,2-b]isoxazol-2-yl)-3-[[2'-(1H-tetrazol-5-yl)[1,1'-biphenyl]-4-yl]methyl]-4(3H)-quinazolinone]
- Response Average Change (AII 0.05 mcg/kg IV, 30 min post dose): 20 mmHg
- Response Average Change (AII 0.05 mcg/kg IV, 60 min post dose): 15 mmHg
- Response Average Change (AII 0.05 mcg/kg IV, 90 min post dose): 17.5 mmHg
- Response Average Change (AII 0.05 mcg/kg IV, 120 min post dose): 22.5 mmHg
- Response Average Change (AII 0.05 mcg/kg IV, 180 min post dose): 36.5 mmHg
- Response Average Change (AII 0.05 mcg/kg IV, 240 min post dose): 30 mmHg
- Response Average Change (AII 0.05 mcg/kg IV, 300 min post dose): 37.5 mmHg
- Response Average Change (AII 0.1 mcg/kg IV, 30 min post dose): 25.5 mmHg
- Response Average Change (AII 0.1 mcg/kg IV, 60 min post dose): 17.5 mmHg
- Response Average Change (AII 0.1 mcg/kg IV, 90 min post dose): 32.5 mmHg
- Response Average Change (AII 0.1 mcg/kg IV, 120 min post dose): 25 mmHg
- Response Average Change (AII 0.1 mcg/kg IV, 180 min post dose): 35 mmHg
- Response Average Change (AII 0.1 mcg/kg IV, 240 min post dose): 40 mmHg
- Response Average Change (AII 0.1 mcg/kg IV, 300 min post dose): 42.5 mmHg
- inhibition in vivo at 1 mg/kg (0.5 h, AII 0.05 mcg/kg IV, 30 min post dose): 60%
- inhibition in vivo at 1 mg/kg (0.5 h, AII 0.1 mcg/kg IV, 30 min post dose): 58%
- inhibition in vivo at 1 mg/kg (1 h, AII 0.05 mcg/kg IV, 60 min post dose): 70%
- inhibition in vivo at 1 mg/kg (1 h, AII 0.1 mcg/kg IV, 60 min post dose): 71%
- inhibition in vivo at 1 mg/kg (2 h, AII 0.05 mcg/kg IV, 120 min post dose): 55%
- inhibition in vivo at 1 mg/kg (2 h, AII 0.1 mcg/kg IV, 120 min post dose): 58%
- inhibition in vivo at 1 mg/kg (3 h, AII 0.05 mcg/kg IV, 180 min post dose): 27%
- inhibition in vivo at 1 mg/kg (3 h, AII 0.1 mcg/kg IV, 180 min post dose): 42%
- inhibition in vivo at 1 mg/kg (4 h, AII 0.05 mcg/kg IV, 240 min post dose): 40%
- inhibition in vivo at 1 mg/kg (5 h, AII 0.05 mcg/kg IV, 300 min post dose): 35%
- inhibition in vivo at 1 mg/kg (5 h, AII 0.1 mcg/kg IV, 300 min post dose): 29%
- inhibition in vivo at 1 mg/kg ([…], AII 0.05 mcg/kg IV, 90 min post dose): 65%
- inhibition in vivo at 1 mg/kg ([…], AII 0.1 mcg/kg IV, 90 min post dose): 46%
